According to patent US11299488B2, “Five membered-aminoheterocycle and 5,6-or 6,6-membered bicyclic aminoheterocyclic inhibitors of rock for the treatment of heart failure” (BRISTOL-MYERS SQUIBB COMPANY, priority 2017, dated 2022):

Target: ROCK2 (Homo sapiens (Human), UniProt O75116)
Assay: ROCK assay (Caliper LABCHIP peptide phosphorylation, 5 μM ATP)
Type: biochemical
Method: The effectiveness of compounds of the present invention as ROCK inhibitors can be determined in a 30 μL assay containing 20 mM HEPES, pH 7.5, 20 mM MgCl2, 0.015% Brij-35, 4 mM DTT, 5 μM ATP and 1.5 μM peptide substrate (FITC-AHA-AKRRRLSSLRA-OH) (SEQ ID No. 1). Compounds were dissolved in DMSO so that the final concentration of DMSO was <2%, and the reaction was initiated with Rho kinase variants. After incubation, the reaction was terminated by the addition of EDTA and the phosphorylated and non-phosphorylated peptides separated using a LABCHIP® 3000 Reader (Caliper Life Sciences). […] Compounds were tested in dose-response format, and the inhibition of kinase activity was calculated at each concentration of compound. The inhibition data were fit using a curve-fitting program to determine the IC50; i.e., the concentration of compound required to inhibit 50% of kinase activity. Representative Examples were tested in the ROCK assay described above and found having ROCK inhibitory activity. A range of ROCK inhibitory activity (IC50 values) of ≤50 μM (50000 nM) was observed. Table A below lists the ROCK IC50 values measured for the following examples.

Chain of ROCK2 (O75116 whole entry, species assumed): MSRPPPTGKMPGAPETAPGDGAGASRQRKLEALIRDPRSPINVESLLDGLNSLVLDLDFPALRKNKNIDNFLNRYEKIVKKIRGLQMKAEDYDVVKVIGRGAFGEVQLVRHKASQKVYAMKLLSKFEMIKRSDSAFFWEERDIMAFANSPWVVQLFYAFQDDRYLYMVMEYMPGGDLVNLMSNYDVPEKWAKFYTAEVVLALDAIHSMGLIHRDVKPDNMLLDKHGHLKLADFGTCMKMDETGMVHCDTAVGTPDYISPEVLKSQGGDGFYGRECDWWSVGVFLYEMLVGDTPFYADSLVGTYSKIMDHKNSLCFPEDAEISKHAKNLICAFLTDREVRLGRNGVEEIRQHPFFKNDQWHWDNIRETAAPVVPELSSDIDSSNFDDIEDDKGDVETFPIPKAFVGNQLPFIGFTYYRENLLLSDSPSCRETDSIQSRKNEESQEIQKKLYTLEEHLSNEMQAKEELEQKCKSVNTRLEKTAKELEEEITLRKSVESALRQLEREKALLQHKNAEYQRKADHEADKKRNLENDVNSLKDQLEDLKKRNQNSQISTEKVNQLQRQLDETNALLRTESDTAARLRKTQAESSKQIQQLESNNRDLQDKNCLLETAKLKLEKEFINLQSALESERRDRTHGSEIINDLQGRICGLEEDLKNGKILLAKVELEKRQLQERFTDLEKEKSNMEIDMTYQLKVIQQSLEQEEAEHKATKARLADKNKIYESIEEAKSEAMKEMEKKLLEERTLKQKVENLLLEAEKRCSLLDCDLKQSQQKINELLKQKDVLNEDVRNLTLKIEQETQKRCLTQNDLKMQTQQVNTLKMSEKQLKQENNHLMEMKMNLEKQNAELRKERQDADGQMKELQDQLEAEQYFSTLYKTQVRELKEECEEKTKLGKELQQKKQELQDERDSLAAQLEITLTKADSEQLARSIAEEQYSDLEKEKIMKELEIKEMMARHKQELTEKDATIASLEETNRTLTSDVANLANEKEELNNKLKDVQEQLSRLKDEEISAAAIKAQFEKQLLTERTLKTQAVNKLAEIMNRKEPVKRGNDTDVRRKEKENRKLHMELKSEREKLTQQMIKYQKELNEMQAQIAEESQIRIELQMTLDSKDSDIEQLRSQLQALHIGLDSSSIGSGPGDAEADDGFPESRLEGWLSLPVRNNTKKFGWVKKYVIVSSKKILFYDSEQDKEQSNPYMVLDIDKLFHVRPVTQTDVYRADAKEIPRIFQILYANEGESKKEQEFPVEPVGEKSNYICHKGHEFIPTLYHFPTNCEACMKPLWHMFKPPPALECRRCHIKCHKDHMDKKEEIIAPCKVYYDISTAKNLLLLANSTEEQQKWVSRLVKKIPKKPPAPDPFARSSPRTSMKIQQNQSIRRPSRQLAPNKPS

Compound	IC50
Cn1cc(-c2cccc3sc(N[C@H]4C[C@]5(C4)C[C@H](Oc4ncccc4C(N)=O)C5)nc23)cn1 (stereo partly drawn) [Example 15, 2-(((2S,4s,6S)-6-((4-(l-methyl-1H-pyrazol-4-yl)benzo[d]thiazol-2-yl)amino)spiro[3.3]heptan-2-yl)oxy)nicotinamide]	0.597 µM
NC(=O)c1cccnc1O[C@H]1C[C@@]2(C[C@H](Nc3nnc(-c4ccc(F)cc4F)o3)C2)C1 (stereo partly drawn) [Example 20, 2-(((2S,4s,6S)-6-((5-(2,4-difluorophenyl)-1,3,4-oxadiazol-2-yl)amino)spiro[3.3]heptan-2-yl)oxy)nicotinamide]	0.537 µM
[H][C@]1(Oc2ncccc2C(N)=O)C[C@]2(C[C@@H](Nc3nccc(N4CCCC(F)C4)n3)C2)C1 (stereo partly drawn) [Example 41, 2-(((2S,4s,6S)-6-((4-(3-fluoro-piperidin-1-yl)pyrimidin-2-yl)amino)spiro [3.3]heptan-2-yl)oxy) nicotinamide]	0.496 µM
COc1ccc2c(N[C@H]3C[C@]4(C3)C[C@H](Oc3ncccc3C(N)=O)C4)nc(OC)cc2c1 (some centres unmarked) [Example 32]	0.068 µM
NC(=O)c1cccnc1O[C@H]1C[C@@]2(C[C@H](Nc3cnc4ccc(F)cc4n3)C2)C1 (stereo partly drawn) [Example 22, 2-(((2S,4s,6S)-6-((7-fluoro-quinoxalin-2-yl)amino)spiro[3.3]heptan-2-yl)oxy) nicotinamide]	0.148 µM
[H][C@]1(Oc2ncccc2C(N)=O)C[C@]2(C[C@@H](Nc3nccc(-c4ccc(C(=O)N(C)C)cc4)n3)C2)C1 (stereo partly drawn) [Example 50, 2-(((2S,4s,6S)-6-((4-(4-(dimethyl-carbamoyl)phenyl)pyrimidin-2-yl)amino)spiro[3.3]heptan-2-yl)oxy) nicotinamide]	1.1 µM
NC(=O)c1cccnc1O[C@H]1C[C@@]2(C[C@H](Nc3ncnc4ccc(F)cc34)C2)C1 (stereo partly drawn) [Example 26, 2-(((2S,4s,6S)-6-((6-fluoro-quinazolin-4-yl)amino)spiro[3.3]heptan-2-yl)oxy) nicotinamide]	0.128 µM
NC(=O)c1cccnc1O[C@H]1C[C@@]2(C[C@H](Nc3nc4ccc(Cl)cc4s3)C2)C1 (stereo partly drawn) [Example 3, 2-(((2S,4s,6S)-6-((6-chlorobenzo[d]thiazol-2-yl)amino)spiro[3.3]heptan-2-yl)oxy)nicotinamide]	0.268 µM
COc1ccc(-c2csc(N[C@H]3C[C@]4(C3)C[C@H](Oc3ncccc3C(N)=O)C4)n2)cc1 (stereo partly drawn) [Example 8, 2-(((2S,4s,6S)-6-((4-(4-methoxyphenyl)thiazol-2-yl)amino)spiro[3.3]heptan-2-yl)oxy)nicotinamide]	0.115 µM
NC(=O)c1cccnc1O[C@H]1C[C@@]2(C[C@H](Nc3ncc4ccc(F)cc4n3)C2)C1 (stereo partly drawn) [Example 30, 2-(((2S,4s,6S)-6-((7-fluoro-quinazolin-2-yl)amino)spiro[3.3]heptan-2-yl)oxy) nicotinamide]	0.235 µM
[H][C@]1(Oc2ncccc2C(N)=O)C[C@]2(C[C@@H](Nc3nccc(-c4cccc(C(=O)N(C)C)c4)n3)C2)C1 (stereo partly drawn) [Example 53, 2-(((2S,4s,6S)-6-((4-(3-(dimethyl-carbamoyl)phenyl)pyrimidin-2-yl)amino)spiro[3.3]heptan-2-yl)oxy) nicotinamide]	0.284 µM
NC(=O)c1cccnc1O[C@H]1C[C@@]2(C[C@H](Nc3ncc4ccccc4n3)C2)C1 (stereo partly drawn) [Example 28, 2-(((2S,4s, 6S)-6-(quinazolin-2-ylamino)spiro [3.3]heptan-2-yl)oxy) nicotinamide]	0.258 µM
NC(=O)c1cccnc1O[C@H]1C[C@@]2(C[C@H](Nc3nc4c(F)cccc4o3)C2)C1 (stereo partly drawn) [Example 6, 2-(((2S,4s,6S)-6-((4-fluorobenzo[d]oxazol-2-yl)amino)spiro[3.3]heptan-2-yl)oxy)nicotinamide]	0.11 µM
[H][C@]1(Oc2ncccc2C(N)=O)C[C@]2(C[C@@H](Nc3ccnc(N4CCC(F)CC4)n3)C2)C1 (stereo partly drawn) [Example 63, 2-(((2S,4s,6S)-6-((2-(4-fluoro-piperidin-1-yl)pyrimidin-4-yl)amino)spiro [3.3]heptan-2-yl)oxy) nicotinamide]	0.733 µM
Cc1ccc2c(N[C@H]3C[C@]4(C3)C[C@H](Oc3ncccc3C(N)=O)C4)nccc2c1 (stereo partly drawn) [Example 31, 2-(((2S,4s, 6S)-6-((6-methyl-isoquinolin-1-yl)amino)spiro [3.3]heptan-2-yl)oxy) nicotinamide]	0.047 µM
NC(=O)c1cccnc1O[C@H]1C[C@@]2(C[C@H](Nc3nnc(-c4ccc(F)c(F)c4)o3)C2)C1 (stereo partly drawn) [Example 18, 2-(((2S,4s,6S)-6-((5-(3,4-difluorophenyl)-1,3,4-oxadiazol-2-yl)amino)spiro[3.3]heptan-2-yl)oxy)nicotinainide]	0.326 µM
NC(=O)c1cccnc1O[C@H]1C[C@@]2(C[C@H](Nc3nnc(-c4ccc(F)cc4)o3)C2)C1 (stereo partly drawn) [Example 17, 2-(((2S,4s,6S)-6-((5-(4-fluorophenyl)-1,3,4-oxadiazol-2-yl)amino)spiro[3.3]heptan-2-yl)oxy)nicotinamide]	0.07 µM
[H][C@]1(Oc2ncccc2C(N)=O)C[C@]2(C[C@@H](Nc3nccc(-c4ccncc4)n3)C2)C1 (stereo partly drawn) [Example 46, 2-(((2S,4s,6S)-6-((4-(pyridin-4-yl)pyrimidin-2-yl)amino)spiro[3.3]heptan-2-yl)oxy)nicotinamide]	0.557 µM
NC(=O)c1cccnc1O[C@H]1C[C@@]2(C[C@H](Nc3ncnc4cc(Cl)ccc34)C2)C1 (stereo partly drawn) [Example 24, 2-(((2S,4s,6S)-6-((7-chloro-quinazolin-4-yl)amino)spiro[3.3]heptan-2-yl)oxy) nicotinamide]	0.103 µM
NC(=O)c1cccnc1O[C@H]1C[C@@]2(C[C@H](Nc3nnc(-c4ccc(OC(F)(F)F)cc4)o3)C2)C1 (stereo partly drawn) [Example 16, 2-(((2S,4s,6S)-6-((5-(4-(trifluoromethoxy)phenyl)-1,3,4-oxadiazol-2-yl)amino)spiro[3.3]heptan-2-yl)oxy)nicotinamide]	0.096 µM
NC(=O)c1cccnc1O[C@H]1C[C@@]2(C[C@H](Nc3nnc(-c4ccc(F)c(F)c4F)o3)C2)C1 (stereo partly drawn) [Example 19, 2-(((2S,4s,6S)-6-((5-(2,3,4-trifluorophenyl)-1,3,4-oxadiazol-2-yl)amino)spiro[3.3]heptan-2-yl)oxy)nicotinamide]	0.287 µM
COc1ccc2ncnc(N[C@H]3C[C@]4(C3)C[C@H](Oc3ncccc3C(N)=O)C4)c2c1 (some centres unmarked) [Example 23]	0.062 µM
N#Cc1ccc(-c2cnc(N[C@H]3CC4(C3)C[C@H](Oc3ncccc3C(N)=O)C4)nc2)cc1 (stereo partly drawn) [Example 34, 2-(((2S,4s,6S)-6-((5-(4-cyanophenyl)pyrimidin-2-yl)amino)spiro[3.3]heptan-2-yl)oxy)nicotinamide]	0.105 µM
COc1ccc2c(N[C@H]3C[C@]4(C3)C[C@H](Oc3ncccc3C(N)=O)C4)nccc2c1 (stereo partly drawn) [Example 33, 2-(((2S,4s,6S)-6-((6-methoxy-isoquinolin-1-yl)amino)spiro [3.3]heptan-2-yl)oxy) nicotinamide]	0.017 µM
NC(=O)c1cccnc1O[C@H]1C[C@@]2(C[C@H](Nc3nc(-c4ccc(F)cc4)cs3)C2)C1 (stereo partly drawn) [Example 12, 2-(((2S,4s,6S)-6-((4-(4-fluorophenyl)thiazol-2-yl)amino)spiro [3.3]heptan-2-yl)oxy)nicotinamide]	0.846 µM
[H][C@]1(Oc2ncccc2C(N)=O)C[C@]2(C[C@@H](Nc3nccc(-c4cnn(C)c4)n3)C2)C1 (stereo partly drawn) [Example 54, 2-(((2S,4s,6S)-6-((4-(1-methyl-1H-pyrazol-4-yl)pyrimidin-2-yl)amino)spiro[3.3]heptan-2-yl)oxy) nicotinamide]	0.874 µM
